Source: patent publication US20260125426A1, “CYCLIC CELL-PENETRATING PEPTIDES AND USES THEREOF” (Ohio State Innovation Foundation, priority 2022, published 2026)
“And” between values parts separate entries of the source, which are not always exact repeats. Equal entries are not always repeated. *1 amine or outer side, *2 acyl side, *3 side chain or, on linkers, in order; H or OH if unused. Bridges are numbered along the chain shown (N, C = ends). Bi = bismuth bicyclization of the Cys thiols (peptides reacted with BiBr3), [Bi]([*:1])([*:2])[*:3]; Lys(NF) = lysine with naphthofluorescein (NF) attached to its side chain; Lys(dye) = not defined here; AEEA = NCCOCCOCC(=O)O

system: HeLa cells; test: Flow cytometry of HeLa cells, total cellular uptake of TMR-labeled peptides; type: cell-based; details: 5 μM TMR-labeled peptide, 2 h, 37° C., relative to CPP12 (100%)
Method: (§1) Flow cytometry. HeLa cells were cultured in 12-well plates (1.5×10^5 cells/well) overnight. The following day, cells were incubated with 5 μM fluorescently labeled peptide for 2 h in DMEM supplemented with 1% FBS and 1% antibiotic solution. DMSO was used as a negative control. After incubation, cells were detached from plate with 350 μL of 0.25% Trypsin-EDTA solution, diluted with Dulbecco's phosphate buffered saline (DPBS), and pelleted at 300 g for 5 min. Cells were washed twice with DPBS, resuspended in DPBS, and analyzed on a BD FACS LSR II flow cytometer.
(§2) To evaluate their cell entry efficiencies, the BCPs and pBCPs were labeled with tetramethylrhodamine (TMR) or naphthofluorescein (NF) on a C-terminal lysine residue (FIGS. 2A, 2B, and 4). […] The labeled peptides were purified again by reversed-phase HPLC and their authenticity was confirmed by high-resolution mass spectrometry.
(§3) HeLa cells were treated with 5 μM dye-labeled BCPs (or pBCPs), CPP12, Tat, or DMSO (equal volume) for 2 h at 37° C., washed to remove any peptides in the medium, and analyzed by flow cytometry. The mean fluorescence intensity (MFI) value of TMR (which is pH insensitive) reflects the total amount of CPP inside the HeLa cells (total cellular uptake). On the other hand, NF is a pH sensitive dye, having an apparent pKa of 7.8. NF is unprotonated and fluorescent inside the neutral environment of the cytosol (and nucleus) but is nearly completely protonated and nonfluorescent in the acidic environments of endosomes and lysosomes. Thus, the MFI value of NF provides a convenient estimate of the peptides that have reached the cytosol.

| Compound | MFI^TMR (Total Cellular Uptake) |
| --- | --- |
| CWYRRCRAC (Ac-CWYRRCRAC-{AEEA-Lys(dye)-NH2}; linker 1-6-9 via Bi (inferred); reading uncertain) [pBCP4] | 11 ± 1% |
| CARCRRRWYWC (Ac-CARCRRRWYWC-{AEEA-Lys(dye)-NH2}; linker 1-4-11 via Bi (inferred); reading uncertain) [pBCP3] | 3% |
| Ac-CRRRRCΦFC [BCP2] | 15 ± 4% |
| Ac-CFΦCRRRRC [BCP1] | 12 ± 2% |
| CFWRCRRC (Ac-CFWRCRRC-{AEEA-Lys(dye)-NH2}; linker 1-5-8 via Bi (inferred); reading uncertain) [pBCP6] | 9.0 ± 0.7% |
| CRRRWYWCAAC (Ac-CRRRWYWCAAC-{AEEA-Lys(dye)-NH2}; linker 1-8-11 via Bi (inferred); reading uncertain) [pBCP8] | 8.4% |
| CARCRRYWC (Ac-CARCRRYWC-{AEEA-Lys(dye)-NH2}; linker 1-4-9 via Bi (inferred); reading uncertain) [pBCP5] | 9.2% |
| CRRCRWFC (Ac-CRRCRWFC-{AEEA-Lys(dye)-NH2}; linker 1-4-8 via Bi (inferred); reading uncertain) [pBCP7] | 10 ± 0.1% |
| Ac-CFΦRRCRRC [BCP3] | 13 ± 2% |
| CRRRRCWYWC (Ac-CRRRRCWYWC-{AEEA-Lys(dye)-NH2}; linker 1-6-10 via Bi (inferred); reading uncertain) [pBCP1] | 9.3 ± 1.9% |

system: HeLa cells; test: Flow cytometry of HeLa cells, cytosolic entry of NF-labeled peptides; type: cell-based; details: 2 μM NF-labeled peptide, 2 h, 37° C., 1% FBS, relative to CPP12 (100%)
Method: as §1, §2, §3
Note that cell entry assays were performed by treating HeLa cell with 2 μM naphthofluorescein (NF)-labeled peptide for 2 h at 37° C. Under this condition, the BCPs enter the cell almost exclusively by endocytosis and endosomal escape. A small fraction of the CPP12^NF-treated cells (˜10%) underwent direct translocation of CPP12^NF; this fraction of highly fluorescent cells was not included in the data analysis. The cellular entry of pBCP427-4 was confirmed by live-cell confocal microscopy (FIG. 6).
BCP16a, BCP16b, and pBCP427-4a were labeled with NF and their cytosolic entry efficiencies were assessed by flow cytometry analysis of HeLa cells after treatment with 2 μM peptide at 37° C. for 2 h. […] CPP12 was previously shown to be highly sensitive to serum proteins (Buyanova, M., et al., (2022). Discovery of a Cyclic Cell-Penetrating Peptide with Improved Endosomal Escape and Cytosolic Delivery Efficiency. Molecular pharmaceuties, 19 (5). 1378-1388).

| Compound | MFI^NF (Cytosolic Entry) |
| --- | --- |
| HS-CH2-CO-rRrRCφ(Bta)φC [BCP16b] | 98% and 98 ± 1% |
| HS-CH2-CO-rRrRC(Bta)φC [BCP15] | 108 ± 4% |
| HS-CH2-CO-rRrRCΦφC [BCP14] | 86 ± 2% |
| Ac-CRRRφCF(dNle)QWC [BCP9A5-2] | 43 ± 2% |
| Ac-CWSNWFCQRRC (Ac-CWSNWFCQRRC-{AEEA-Lys(NF)-NH2}; linker 1-7-11 via Bi (inferred)) [pBCP427-6] | 65 ± 1% |
| HS-CH2-CO-rRrRcΦ(Bta)φC [BCP16a] | 156% and 156 ± 4% |
| Ac-CWSNWFCFQRRCRRF (Ac-CWSNWFCFQRRCRRF-{AEEA-Lys(NF)-NH2}; linker 1-7-12 via Bi (inferred)) [pBCP427-1] | 94 ± 22% |
| Ac-CrRrRCΦfC [BCP4] | 51 ± 16% |
| HS-CH2-CO-φSNφFCfQrRCRrFa [BCP427-1] | 84 ± 2% |
| Ac-CWSQWFCFQRRC (Ac-CWSQWFCFQRRC-{AEEA-Lys(NF)-NH2}; linker 1-7-12 via Bi (inferred)) [pBCP427-7] | 69 ± 3% |
| CWSNWFCFQRRCRRFA (Ac-CWSNWFCFQRRCRRFA-{AEEA-Lys(dye)-NH2}; linker 1-7-12 via Bi (inferred); reading uncertain) [pBCP427] | 131 ± 1% |
| Ac-CWSNWCFQRRC (Ac-CWSNWCFQRRC-{AEEA-Lys(NF)-NH2}; linker 1-6-11 via Bi (inferred)) [pBCP427-5] | 76 ± 1% |
| Ac-CWSNWFCFQRRCR (Ac-CWSNWFCFQRRCR-{AEEA-Lys(NF)-NH2}; linker 1-7-12 via Bi (inferred)) [pBCP427-3] | 101 ± 3% |
| Ac-CRRRφRFCQWC [BCP9A5-1] | 30 ± 1% |
| HS-CH2-CO-φSNφFCfQrRC [BCP427-2] | 118 ± 4% |
| Ac-CWSNWFCFQRRCRR (Ac-CWSNWFCFQRRCRR-{AEEA-Lys(NF)-NH2}; linker 1-7-12 via Bi (inferred)) [pBCP427-2] | 45 ± 1% |
| CC(=O)N[C@@H](C)C(=O)N[C@@H](Cc1c[nH]c2ccccc12)C(=O)N[C@@H](CO)C(=O)N[C@@H](CC(N)=O)C(=O)N[C@@H](Cc1c[nH]c2ccccc12)C(=O)N[C@@H](Cc1ccccc1)C(=O)N[C@@H](C)C(=O)N[C@@H](Cc1ccccc1)C(=O)N[C@@H](CCC(N)=O)C(=O)N[C@@H](CCCNC(=N)N)C(=O)N[C@@H](CCCNC(=N)N)C(=O)N[C@@H](C)C(=O)NCCOCCOCC(=O)N[C@@H](CCCCNC(=O)c1ccc2c(c1)C(=O)OC21c2ccc3cc(O)ccc3c2Oc2c1ccc1cc(O)ccc21)C(N)=O [pBCP427-4Ala] | 18% and 18 ± 2% |

same assay, conditions: 2 μM NF-labeled peptide, 2 h, 37° C., 10% FBS, relative to CPP12

| Compound | cytosolic entry efficiency in the presence of 10% FBS |
| --- | --- |
| HS-CH2-CO-rRrRCφ(Bta)φC [BCP16b] | 169% |
| HS-CH2-CO-rRrRcΦ(Bta)φC [BCP16a] | 821% |

same assay, conditions: 5 μM

| Compound | cytosolic entry, fold less active than CPP12 | cytosolic entry, fold more active than Tat |
| --- | --- | --- |
| CWYWRRCRAC (Ac-CWYWRRCRAC-{AEEA-Lys(dye)-NH2}; linker 1-7-10 via Bi (inferred); reading uncertain) [pBCP10] | 6 fold | 5 fold |

same assay, conditions: 5 μM NF-labeled peptide, 2 h, 37° C., relative to CPP12 (100%)

| Compound | MFI^NF (Cytosolic Entry) |
| --- | --- |
| Ac-CΣΦRRCrrC [BCP9] | 43% |
| CWYRRCRAC (Ac-CWYRRCRAC-{AEEA-Lys(dye)-NH2}; linker 1-6-9 via Bi (inferred); reading uncertain) [pBCP4] | 10 ± 4% |
| Ac-CrRrRCΦfFC [BCP5] | 45 ± 1% |
| Ac-CFΦRrRCAAC [BCP13] | 30 ± 3% |
| Ac-CrRrRCΦfC [BCP4] | 51 ± 16% |
| CFFRRRCRAC (Ac-CFFRRRCRAC-{AEEA-Lys(dye)-NH2}; linker 1-7-10 via Bi (inferred); reading uncertain) [pBCP16] | 15 ± 1% |
| CWYWRRCRAC (Ac-CWYWRRCRAC-{AEEA-Lys(dye)-NH2}; linker 1-7-10 via Bi (inferred); reading uncertain) [pBCP10] | 17% and 17 ± 2% |
| CWSNWFCFQRRCRRFA (Ac-CWSNWFCFQRRCRRFA-{AEEA-Lys(dye)-NH2}; linker 1-7-12 via Bi (inferred); reading uncertain) [pBCP427] | 41% and 41 ± 5% |
| CWYCRRRC (Ac-CWYCRRRC-{AEEA-Lys(dye)-NH2}; linker 1-4-8 via Bi (inferred); reading uncertain) [pBCP11] | 14 ± 1% |
| Ac-CFΦRRCrrC [BCP8] | 38 ± 1% |
| AWYRRARAA [pBCP4a, linear variant of pBCP4, three cysteine residues replaced with Ala] | 5.4% |
| CWYRCRRC (Ac-CWYRCRRC-{AEEA-Lys(dye)-NH2}; linker 1-5-8 via Bi (inferred); reading uncertain) [pBCP13] | 11 ± 1% |
| CWYRRRCRAC (Ac-CWYRRRCRAC-{AEEA-Lys(dye)-NH2}; linker 1-7-10 via Bi (inferred); reading uncertain) [pBCP9] | 12 ± 4% |
| CFFFRRRCRAC (Ac-CFFFRRRCRAC-{AEEA-Lys(dye)-NH2}; linker 1-8-11 via Bi (inferred); reading uncertain) [pBCP17] | 15 ± 1% |
| CYYRRCRAC (Ac-CYYRRCRAC-{AEEA-Lys(dye)-NH2}; linker 1-6-9 via Bi (inferred); reading uncertain) [pBCP15] | 16 ± 3% |
| Ac-CfΦRrCRrC [BCP10] | 56 ± 32% |
| Ac-CFΦRRRRCAAAC [BCP11] | 13% |
| CRRRRCWYWC (Ac-CRRRRCWYWC-{AEEA-Lys(dye)-NH2}; linker 1-6-10 via Bi (inferred); reading uncertain) [pBCP1] | 12 ± 4% |
| CWYRRRCAC (Ac-CWYRRRCAC-{AEEA-Lys(dye)-NH2}; linker 1-7-9 via Bi (inferred); reading uncertain) [pBCP12] | 12 ± 1% |

same assay, conditions: 5 μM, linear Ala variant vs cyclized peptide

| Compound | cytosolic entry, fold less active than pBCP4 |
| --- | --- |
| AWYRRARAA [pBCP4a, linear variant of pBCP4, three cysteine residues replaced with Ala] | ~2 fold |
